The results in this text go back to US4533665A, “[[Bis(aryl)methylene]-1-piperidinyl]alkyl-pyrimidinones” (Janssen Pharmaceutica, priority 1984, dated 1985).

Where a name gives a salt, the structure may show the parent alone.

T1 sequence (P14842 whole entry): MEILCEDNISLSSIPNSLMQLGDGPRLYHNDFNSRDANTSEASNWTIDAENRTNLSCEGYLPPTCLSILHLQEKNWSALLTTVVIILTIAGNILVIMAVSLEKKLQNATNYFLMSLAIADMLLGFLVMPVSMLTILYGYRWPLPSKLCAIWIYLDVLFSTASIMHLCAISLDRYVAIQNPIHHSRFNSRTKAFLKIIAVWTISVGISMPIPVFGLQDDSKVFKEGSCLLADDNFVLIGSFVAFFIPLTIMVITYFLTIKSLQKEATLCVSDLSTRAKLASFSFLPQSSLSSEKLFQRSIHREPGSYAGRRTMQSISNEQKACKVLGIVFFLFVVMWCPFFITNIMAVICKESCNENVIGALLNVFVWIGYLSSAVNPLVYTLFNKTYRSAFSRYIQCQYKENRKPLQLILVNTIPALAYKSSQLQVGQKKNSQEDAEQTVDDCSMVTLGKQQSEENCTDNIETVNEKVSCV

The experiment has as its target T1, S2-receptor (Rattus norvegicus, UniProt P14842).
T1 construct: Caudal arteries from fasted male rats; from tissue; host or cells: rat caudal artery, helical strips
Description: antagonistic activity on the effect of serotonin on the caudal artery of the rat (caudal artery test). As to conditions: rat caudal artery strips; serotonin 40 ng/ml; 5 minutes after adding the drug; read-out: ED50 (minimal concentration which reduces the amplitude of the serotonin-induced contraction to at least 50% of its normal value) (converted). How it is done:
ANTAGONISTIC ACTIVITY ON THE EFFECT OF SEROTONIN ON THE CAUDAL ARTERY OF THE RAT
Caudal arteries from fasted male rats (210-235 g) were used in the test. […] Submaximal contractions of the arterial strips were produced by adding single doses of serotonin (40 ng/ml) to the organ bath for 2 minutes with each time an interval of 10 minutes. The amplitude of the contraction was measured before and 5 minutes after adding the drug. After washing out, the agonist was added again three times in order to see whether the contraction was restored and normalized. […] In this connection the ED50 -values are the minimal concentrations of the concerned drugs which reduce the amplitude of the contraction to at least 50% of its normal value.
On to `Cc1nc2n(c(=O)c1CCN1CCC(=C(c3ccc(F)cc3)c3ccc(F)cc3)CC1)CCCS2` [Compound 114], for which the IC50 is 1.13 pM.

Take `Cc1nc2scc(C)n2c(=O)c1CCN1CCC(=C(c2ccccc2)c2ccc(O)cc2)CC1` [Compound 72]: the IC50 is 1.51 pM.

Turning to `Cc1nc2scc(C)n2c(=O)c1CCN1CCC(=C(c2ccc(F)cc2)c2cccc(C(F)(F)F)c2)CC1` [Compound 119], the IC50 was 2.31 pM.

As to `COC1CN(CCc2c(C)nc3sccn3c2=O)CCC1=C(c1ccc(F)cc1)c1ccc(F)cc1` (centres unmarked) [Compound 63], the IC50 was 2.56 pM.

On to `Cc1nc2ccccn2c(=O)c1CCN1CCC(=C(c2ccccc2)c2ccc(O)cc2)CC1` [Compound 78], for which the IC50 was 2.88 pM.

With `Cc1nc2sccn2c(=O)c1CCN1CCC(=C(c2ccccc2)c2ccc(F)cc2)CC1` [Compound 139, 6-[2-[4-[(4-fluorophenyl)phenylmethylene]-1-piperidinyl]ethyl]-7-methyl-5H-thiazolo[3,2-a]pyrimidin-5-one monohydrochloride], the IC50 is 0.323 pM.

On to `Cc1nc2scc(C)n2c(=O)c1CCN1CCC(=C(c2ccc(F)cc2)c2cccnc2)CC1` [Compound 124], for which the IC50 is 2.74 pM.

`Cc1nc2ccc(N)cn2c(=O)c1CCN1CCC(=C(c2ccc(F)cc2)c2ccc(F)cc2)CC1` [Compound 141, 7-amino-3-[2-[4-[bis(4-fluorophenyl)methylene]-1-piperidinyl]ethyl]-2-methyl-4H-pyrido[1,2-a]-pyrimidin-4-one]: the IC50 is 1.46 pM.
